# Experimental data as given in patent US8076487B2, “Pyridone derivative and herbicide” (Kumiai Chemical Industry Co., Ltd., priority 2006, dated 2011).
# Columns and labels:
# Assay type in all cases: in vivo
# [1] = test system: barnyardgrass (Echinochloa crus-galli (L.) P. Beauv. var. crus-galli); assay: Test Example 3: herbicidal effect by application to upland field (foliage treatment); settings: foliage treatment, 1,000 g active ingredient per 1 hectare, 14th day after application, greenhouse
# Outline: (§1)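 Effect scores come from a standard grading 14 days after plants, grown from seed for two weeks in field soil in a greenhouse, were sprayed over the top with wettable powder in water at 1,000 g active ingredient per hectare.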
# [2] = test system: slender amaranth (Amaranthus viridis L.); assay: as above; settings: foliage treatment, 1,000 g active ingredient per 1 hectare, 14th day after application, greenhouse
# Outline: as §1
# [3] = test system: green foxtail (Setaria viridis (L.) P. Beauv.); assay: as above; settings: foliage treatment, 1,000 g active ingredient per 1 hectare, 14th day after application, greenhouse
# Outline: as §1
# [4] = test system: velvetleaf (Abutilon theophrasti medicus); assay: as above; settings: foliage treatment, 1,000 g active ingredient per 1 hectare, 14th day after application, greenhouse
# Outline: as §1
# [5] = test system: barnyardgrass (Echinochloa crus-galli (L.) P. Beauv. var. crus-galli); assay: Test Example 2: herbicidal effect by soil application to upland field; settings: soil surface spray, upland field soil, 1,000 g active ingredient per hectare, 21st day after application
# Outline: (§2)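 A standard visual rating of herbicidal effect, made 21 days after treatment, gives the value. Treatment consisted of a uniform spray of water-diluted wettable powder on the soil covering newly sown seeds, equivalent to 1,000 g active ingredient and 1,000 liters per hectare.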
# [6] = test system: slender amaranth (Amaranthus viridis L.); assay: as above; settings: soil surface spray, upland field soil, 1,000 g active ingredient per hectare, 21st day after application
# Outline: as §2
# [7] = test system: green foxtail (Setaria viridis (L.) P. Beauv.); assay: as above; settings: soil surface spray, upland field soil, 1,000 g active ingredient per hectare, 21st day after application
# Outline: as §2
# [8] = test system: velvetleaf (Abutilon theophrasti medicus); assay: as above; settings: soil surface spray, upland field soil, 1,000 g active ingredient per hectare, 21st day after application
# Outline: as §2
# [9] = test system: heartshape false pickerelweed (Monochoria vaginalis (Burm.f.) C.Presl); assay: Test Example 1: herbicidal effect by soil application to paddy field; settings: paddy field soil application; active ingredient 1,000 g per 1 hectare; wettable powder added dropwise to water surface the day after sowing; examined on the 21st day after application
# Outline: (§3)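 Under greenhouse conditions, seeds sown on puddled paddy soil in 100 cm2 pots under 3 cm of standing water received the test compound; injury was assessed with a standard scoring scheme three weeks (day 21) after treatment.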
# [10] = test system: early watergrass (Echinochloa oryzicola Vasing); assay: as above; settings: paddy field soil application; active ingredient 1,000 g per 1 hectare; wettable powder added dropwise to water surface the day after sowing; examined on the 21st day after application
# Outline: as §3
# [11] = test system: Japanese bulrush (Scirpus juncoides Roxb.); assay: as above; settings: paddy field soil application; active ingredient 1,000 g per 1 hectare; wettable powder added dropwise to water surface the day after sowing; examined on the 21st day after application
# Outline: as §3
Structure (SMILES),"herbicidal effect, Barnyardgrass [1]","herbicidal effect, Slender Amaranth [2]","herbicidal effect, Green Foxtail [3]","herbicidal effect, Velvetleaf [4]","herbicidal effect (index), Barnyardgrass [5]","herbicidal effect (index), Slender Amaranth [6]","herbicidal effect (index), Green Foxtail [7]","herbicidal effect (index), Velvetleaf [8]","herbicidal effect, Monochoria vaginalis (Burm. f.) C. Presl [9]","herbicidal effect, Echinochloa oryzicola Vasing [10]","herbicidal effect, Scirpus juncoides Roxb. [11]"
CC(C)CNn1c(C(F)(F)F)ccc(C(=O)C2=C(O)CCCC2=O)c1=O [I-162],5 (90% or more of herbicidal effect and crop phytotoxicity),5 (90% or more of herbicidal effect and crop phytotoxicity),5 (90% or more of herbicidal effect and crop phytotoxicity),5 (90% or more of herbicidal effect and crop phytotoxicity),5 (90% or more of herbicidal effect and crop phytotoxicity),4 (70 to less than 90% of herbicidal effect and crop phytotoxicity),5 (90% or more of herbicidal effect and crop phytotoxicity),5 (90% or more of herbicidal effect and crop phytotoxicity),5 (90% or more of herbicidal effect and crop phytotoxicity),5 (90% or more of herbicidal effect and crop phytotoxicity),5 (90% or more of herbicidal effect and crop phytotoxicity)
O=C1CCCC(O)=C1C(=O)c1ccc(C(F)(F)F)n(NCC2CC2)c1=O [I-164],5 (90% or more of herbicidal effect and crop phytotoxicity),5 (90% or more of herbicidal effect and crop phytotoxicity),5 (90% or more of herbicidal effect and crop phytotoxicity),5 (90% or more of herbicidal effect and crop phytotoxicity),5 (90% or more of herbicidal effect and crop phytotoxicity),5 (90% or more of herbicidal effect and crop phytotoxicity),5 (90% or more of herbicidal effect and crop phytotoxicity),5 (90% or more of herbicidal effect and crop phytotoxicity),5 (90% or more of herbicidal effect and crop phytotoxicity),5 (90% or more of herbicidal effect and crop phytotoxicity),5 (90% or more of herbicidal effect and crop phytotoxicity)
O=C1CCCC(O)=C1C(=O)c1ccc(C(F)(F)F)n(NCCCF)c1=O [I-168],5 (90% or more of herbicidal effect and crop phytotoxicity),5 (90% or more of herbicidal effect and crop phytotoxicity),5 (90% or more of herbicidal effect and crop phytotoxicity),5 (90% or more of herbicidal effect and crop phytotoxicity),5 (90% or more of herbicidal effect and crop phytotoxicity),5 (90% or more of herbicidal effect and crop phytotoxicity),5 (90% or more of herbicidal effect and crop phytotoxicity),5 (90% or more of herbicidal effect and crop phytotoxicity),5 (90% or more of herbicidal effect and crop phytotoxicity),5 (90% or more of herbicidal effect and crop phytotoxicity),5 (90% or more of herbicidal effect and crop phytotoxicity)
COCCNn1c(C(F)(F)F)ccc(C(=O)C2=C(O)CCCC2=O)c1=O [I-169],5 (90% or more of herbicidal effect and crop phytotoxicity),5 (90% or more of herbicidal effect and crop phytotoxicity),5 (90% or more of herbicidal effect and crop phytotoxicity),5 (90% or more of herbicidal effect and crop phytotoxicity),5 (90% or more of herbicidal effect and crop phytotoxicity),5 (90% or more of herbicidal effect and crop phytotoxicity),5 (90% or more of herbicidal effect and crop phytotoxicity),5 (90% or more of herbicidal effect and crop phytotoxicity),5 (90% or more of herbicidal effect and crop phytotoxicity),5 (90% or more of herbicidal effect and crop phytotoxicity),5 (90% or more of herbicidal effect and crop phytotoxicity)
O=C1CCCC(O)=C1C(=O)c1ccc(C(F)(F)F)n(NCC2CCCO2)c1=O (centres unmarked) [I-170],5 (90% or more of herbicidal effect and crop phytotoxicity),5 (90% or more of herbicidal effect and crop phytotoxicity),4 (70 to less than 90% of herbicidal effect and crop phytotoxicity),5 (90% or more of herbicidal effect and crop phytotoxicity),5 (90% or more of herbicidal effect and crop phytotoxicity),5 (90% or more of herbicidal effect and crop phytotoxicity),5 (90% or more of herbicidal effect and crop phytotoxicity),5 (90% or more of herbicidal effect and crop phytotoxicity),5 (90% or more of herbicidal effect and crop phytotoxicity),5 (90% or more of herbicidal effect and crop phytotoxicity),5 (90% or more of herbicidal effect and crop phytotoxicity)
CN(C)n1c(C(F)(F)F)ccc(C(=O)C2=C(O)CCCC2=O)c1=O [I-171],5 (90% or more of herbicidal effect and crop phytotoxicity),5 (90% or more of herbicidal effect and crop phytotoxicity),4 (70 to less than 90% of herbicidal effect and crop phytotoxicity),5 (90% or more of herbicidal effect and crop phytotoxicity),5 (90% or more of herbicidal effect and crop phytotoxicity),5 (90% or more of herbicidal effect and crop phytotoxicity),4 (70 to less than 90% of herbicidal effect and crop phytotoxicity),5 (90% or more of herbicidal effect and crop phytotoxicity),5 (90% or more of herbicidal effect and crop phytotoxicity),5 (90% or more of herbicidal effect and crop phytotoxicity),5 (90% or more of herbicidal effect and crop phytotoxicity)
CCN(C)n1c(C(F)(F)F)ccc(C(=O)C2=C(O)CCCC2=O)c1=O [I-175],5 (90% or more of herbicidal effect and crop phytotoxicity),5 (90% or more of herbicidal effect and crop phytotoxicity),4 (70 to less than 90% of herbicidal effect and crop phytotoxicity),5 (90% or more of herbicidal effect and crop phytotoxicity),5 (90% or more of herbicidal effect and crop phytotoxicity),5 (90% or more of herbicidal effect and crop phytotoxicity),5 (90% or more of herbicidal effect and crop phytotoxicity),5 (90% or more of herbicidal effect and crop phytotoxicity),5 (90% or more of herbicidal effect and crop phytotoxicity),5 (90% or more of herbicidal effect and crop phytotoxicity),5 (90% or more of herbicidal effect and crop phytotoxicity)
